Source: patent US12077503B2, “Substituted cyclic amides and their use as herbicides” (FMC CORPORATION, priority 2015, dated 2024)

Assays:
Type in all cases: in vivo
[1] = tested on: pigweed (Amaranthus retroflexus); test: Test A preemergence; conditions: Amaranthus retroflexus, pre-emergence, 240 h, read-out: Plant response rating, Pigweed; for pest or weed control at 125 g/ha: 125 g ai/ha, preemergence, visual rating after approx. 10 d, 0 to 100 scale where 0 is no effect and 100 is complete control; for pest or weed control at 31 g/ha: Preemergence, 31 g ai/ha, 0 to 100 scale (0 no effect, 100 complete control)
[2] = tested on: barnyardgrass (Echinochloa crus-galli); test: Test A preemergence; conditions: Echinochloa crus-galli, pre-emergence, 240 h, read-out: Plant response rating, Barnyardgrass; for pest or weed control at 125 g/ha: 125 g ai/ha, preemergence, visual rating after approx. 10 d, 0 to 100 scale where 0 is no effect and 100 is complete control; for pest or weed control at 31 g/ha: Preemergence, 31 g ai/ha, 0 to 100 scale (0 no effect, 100 complete control)
Outline: (§1)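 Each rating is a visual injury score from 0 to 100 given about 10 d after treatment, judged against untreated controls kept alongside in the greenhouse. In loam soil–sand blend, seeds got a preemergence directed soil spray, while postemergence plants were 2 to 10 cm tall at spraying.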

Kochia (Kochia scoparia) [3] = test: Test A preemergence; conditions: Bassia scoparia, pre-emergence, 240 h, read-out: Plant response rating, Kochia; for pest or weed control at 125 g/ha: 125 g ai/ha, preemergence, visual rating after approx. 10 d, 0 to 100 scale where 0 is no effect and 100 is complete control; for pest or weed control at 31 g/ha: Preemergence, 31 g ai/ha, 0 to 100 scale (0 no effect, 100 complete control)
Outline: as §1

[4] = tested on: ryegrass, Italian (Italian ryegrass, Lolium multiflorum); test: Test A preemergence; conditions: Lolium multiflorum, pre-emergence, 240 h, read-out: Plant response rating, Ryegrass, Italian; for pest or weed control at 125 g/ha: 125 g ai/ha, preemergence, visual rating after approx. 10 d, 0 to 100 scale where 0 is no effect and 100 is complete control; for pest or weed control at 31 g/ha: Preemergence, 31 g ai/ha, 0 to 100 scale (0 no effect, 100 complete control)
Outline: as §1

[5] = tested on: ragweed (common ragweed, Ambrosia elatior); test: Test A preemergence; conditions: Ambrosia artemisiifolia, pre-emergence, 240 h, read-out: Plant response rating, Ragweed; for pest or weed control at 125 g/ha: 125 g ai/ha, preemergence, visual rating after approx. 10 d, 0 to 100 scale where 0 is no effect and 100 is complete control; for pest or weed control at 31 g/ha: Preemergence, 31 g ai/ha, 0 to 100 scale (0 no effect, 100 complete control)
Outline: as §1

[6] = tested on: pigweed (Amaranthus retroflexus); test: Test A postemergence; conditions: Amaranthus retroflexus, post-emergence, 240 h; for pest or weed control at 125 g/ha: 125 g ai/ha, postemergence, visual injury rating after approximately 10 d, read-out: Pigweed plant response rating (0 to 100 scale, 0 no effect, 100 complete control); for pest or weed control at 31 g/ha: Postemergence, 31 g ai/ha, visual injury after approx. 10 d, 0 to 100 scale, 0 no effect, 100 complete control, read-out: Plant response rating, Pigweed
Outline: as §1

[7] = tested on: barnyardgrass (Echinochloa crus-galli); test: Test A postemergence; conditions: Echinochloa crus-galli, post-emergence, 240 h; for pest or weed control at 125 g/ha: 125 g ai/ha, postemergence, visual injury rating after approximately 10 d, read-out: Barnyardgrass plant response rating (0 to 100 scale, 0 no effect, 100 complete control); for pest or weed control at 31 g/ha: Postemergence, 31 g ai/ha, visual injury after approx. 10 d, 0 to 100 scale, 0 no effect, 100 complete control, read-out: Plant response rating, Barnyardgrass
Outline: as §1

Kochia (Kochia scoparia) [8] = test: Test A postemergence; conditions: Bassia scoparia, post-emergence, 240 h; for pest or weed control at 125 g/ha: 125 g ai/ha, postemergence, visual injury rating after approximately 10 d, read-out: Kochia plant response rating (0 to 100 scale, 0 no effect, 100 complete control); for pest or weed control at 31 g/ha: Postemergence, 31 g ai/ha, visual injury after approx. 10 d, 0 to 100 scale, 0 no effect, 100 complete control, read-out: Plant response rating, Kochia
Outline: as §1

[9] = tested on: ryegrass, Italian (Italian ryegrass, Lolium multiflorum); test: Test A postemergence; conditions: Lolium multiflorum, post-emergence, 240 h; for pest or weed control at 125 g/ha: 125 g ai/ha, postemergence, visual injury rating after approximately 10 d, read-out: Ryegrass, Italian plant response rating (0 to 100 scale, 0 no effect, 100 complete control); for pest or weed control at 31 g/ha: Postemergence, 31 g ai/ha, visual injury after approx. 10 d, 0 to 100 scale, 0 no effect, 100 complete control, read-out: Plant response rating, Ryegrass, Italian
Outline: as §1

[10] = tested on: wheat (Triticum aestivum); test: Test A postemergence; conditions: Triticum aestivum, post-emergence, 240 h; for plant injury at 125 g/ha: 125 g ai/ha, postemergence, visual injury rating after approximately 10 d, read-out: Wheat plant response rating (0 to 100 scale, 0 no effect, 100 complete control); for plant injury at 31 g/ha: Postemergence, 31 g ai/ha, visual injury after approx. 10 d, 0 to 100 scale, 0 no effect, 100 complete control, read-out: Plant response rating, Wheat
Outline: as §1

[11] = tested on: giant foxtail (Setaria faberii); test: Test A postemergence; conditions: Setaria faberi, post-emergence, 240 h; for pest or weed control at 125 g/ha: 125 g ai/ha, postemergence, visual injury rating after approximately 10 d, read-out: Foxtail, Giant plant response rating (0 to 100 scale, 0 no effect, 100 complete control); for pest or weed control at 31 g/ha: Postemergence, 31 g ai/ha, visual injury after approx. 10 d, 0 to 100 scale, 0 no effect, 100 complete control, read-out: Plant response rating, Foxtail, Giant
Outline: as §1

[12] = tested on: Galium (catchweed bedstraw, Galium aparine); test: Test A postemergence; conditions: Galium, post-emergence, 240 h; for pest or weed control at 125 g/ha: 125 g ai/ha, postemergence, visual injury rating after approximately 10 d, read-out: Galium plant response rating (0 to 100 scale, 0 no effect, 100 complete control); for pest or weed control at 31 g/ha: Postemergence, 31 g ai/ha, visual injury after approx. 10 d, 0 to 100 scale, 0 no effect, 100 complete control, read-out: Plant response rating, Galium
Outline: as §1

[13] = tested on: blackgrass (Alopecurus myosuroides); test: Test A postemergence; conditions: Alopecurus myosuroides, post-emergence, 240 h; for pest or weed control at 125 g/ha: 125 g ai/ha, postemergence, visual injury rating after approximately 10 d, read-out: Blackgrass plant response rating (0 to 100 scale, 0 no effect, 100 complete control); for pest or weed control at 31 g/ha: Postemergence, 31 g ai/ha, visual injury after approx. 10 d, 0 to 100 scale, 0 no effect, 100 complete control, read-out: Plant response rating, Blackgrass
Outline: as §1

corn (Zea mays) = test: Test A postemergence; conditions: Zea mays, post-emergence, 240 h; for plant injury at 125 g/ha: 125 g ai/ha, postemergence, visual injury rating after approximately 10 d, read-out: Corn plant response rating (0 to 100 scale, 0 no effect, 100 complete control); for Corn plant response rating (crop injury, 0 = no effect, 100 = complete kill) at 31 g/ha: Postemergence, 31 g ai/ha, visual injury after approx. 10 d, 0 to 100 scale, 100 complete control
Outline: as §1

[14] = tested on: ragweed (common ragweed, Ambrosia elatior); test: Test A postemergence; conditions: Ambrosia artemisiifolia, post-emergence, 240 h; for pest or weed control at 125 g/ha: 125 g ai/ha, postemergence, visual injury rating after approximately 10 d, read-out: Ragweed plant response rating (0 to 100 scale, 0 no effect, 100 complete control); for pest or weed control at 31 g/ha: Postemergence, 31 g ai/ha, visual injury after approx. 10 d, 0 to 100 scale, 0 no effect, 100 complete control, read-out: Plant response rating, Ragweed
Outline: as §1

SMILES | pest or weed control at 125 g/ha [1] [%] | pest or weed control at 31 g/ha [1] [%] | pest or weed control at 125 g/ha [2] [%] | pest or weed control at 31 g/ha [2] [%] | pest or weed control at 125 g/ha (Kochia (Kochia scoparia) [3]) [%] | pest or weed control at 31 g/ha (Kochia (Kochia scoparia) [3]) [%] | pest or weed control at 125 g/ha [4] [%] | pest or weed control at 31 g/ha [4] [%] | pest or weed control at 125 g/ha [5] [%] | pest or weed control at 31 g/ha [5] [%] | pest or weed control at 125 g/ha [6] [%] | pest or weed control at 31 g/ha [6] [%] | pest or weed control at 125 g/ha [7] [%] | pest or weed control at 31 g/ha [7] [%] | pest or weed control at 125 g/ha (Kochia (Kochia scoparia) [8]) [%] | pest or weed control at 31 g/ha (Kochia (Kochia scoparia) [8]) [%] | pest or weed control at 125 g/ha [9] [%] | pest or weed control at 31 g/ha [9] [%] | plant injury at 125 g/ha [10] [%] | plant injury at 31 g/ha [10] [%] | further results
CN1C[C@H](c2ccc(C(F)F)cc2)[C@@H](C(=O)Nc2ccccc2F)C1=O [Compound 803] | 60 | 40 | 90 | 70 | 70 | 50 | 0 | 0 | 60 | 30 | 40 | 30 | 80 | 80 | 70 | 50 | 40 | 0 | 40 | 0 | pest or weed control at 125 g/ha [11]: 90%; pest or weed control at 31 g/ha [11]: 90%; pest or weed control at 125 g/ha [12]: 60%; pest or weed control at 31 g/ha [12]: 30%; pest or weed control at 125 g/ha [13]: 50%; pest or weed control at 31 g/ha [13]: 20%; plant injury at 125 g/ha (corn (Zea mays)): 90%; Corn plant response rating (crop injury, 0 = no effect, 100 = complete kill) at 31 g/ha (corn (Zea mays)): 20%; pest or weed control at 125 g/ha [14]: 30%; pest or weed control at 31 g/ha [14]: 30%
CN1CC[C@H](c2cccc(OC(F)(F)F)c2)[C@@H](C(=O)Nc2cccc(F)c2F)C1=O [Compound 807] | 40 | 0 | 100 | 100 | 50 | 0 | 70 | 20 | 0 | 0 | 0 | 0 | 80 | 70 | 0 | 0 | 0 | 0 | 30 | 0 | pest or weed control at 125 g/ha [11]: 80%; pest or weed control at 31 g/ha [11]: 70%; pest or weed control at 125 g/ha [12]: 0%; pest or weed control at 31 g/ha [12]: 0%; pest or weed control at 125 g/ha [13]: 0%; pest or weed control at 31 g/ha [13]: 0%; plant injury at 125 g/ha (corn (Zea mays)): 70%; Corn plant response rating (crop injury, 0 = no effect, 100 = complete kill) at 31 g/ha (corn (Zea mays)): 0%; pest or weed control at 125 g/ha [14]: 0%; pest or weed control at 31 g/ha [14]: 0%
CN1CC[C@H](c2cccc(OC(F)(F)F)c2)[C@@H](C(=O)Nc2cccc(Cl)c2F)C1=O [Compound 810] | 0 | 0 | 90 | 90 | 0 | 0 | 20 | 0 | 0 | 0 | 0 | 0 | 70 | 40 | 0 | 0 | 0 | 0 | 0 | 0 | pest or weed control at 125 g/ha [11]: 80%; pest or weed control at 31 g/ha [11]: 60%; pest or weed control at 125 g/ha [12]: 0%; pest or weed control at 31 g/ha [12]: 0%; pest or weed control at 125 g/ha [13]: 0%; pest or weed control at 31 g/ha [13]: 0%; plant injury at 125 g/ha (corn (Zea mays)): 0%; Corn plant response rating (crop injury, 0 = no effect, 100 = complete kill) at 31 g/ha (corn (Zea mays)): 0%; pest or weed control at 125 g/ha [14]: 0%; pest or weed control at 31 g/ha [14]: 0%
